Measured values: US9162992B2, “Compounds and compositions for treatment of breathing control disorders or diseases” (GALLEON PHARMACEUTICALS, INC., priority 2010, dated 2015)

Tested on: healthy subjects
Assay: Ventilation, safety and pharmacokinetics in human volunteers, single-rising dose IV infusion
Assay type: in vivo
Experimental: A randomized, double-blind, placebo-controlled nine-period single-rising dose study in three alternating cohorts of healthy subjects was conducted at a single center in conformance with Good Clinical Practice. Compound (XXXVI) was synthesized according to Good Manufacturing Practice. Three (3) Cohorts of ten subjects each were randomized to treatment in a ratio of 4:1 (8 treated, 2 placebo) in a rotating panel design. Subjects in the first cohort participated in dosing periods 1, 4, and 7, with the second cohort participating in dosing periods 2, 5, and 8, and third cohort participating in dosing period 3, 6, and 9. The subjects who received placebo in their first dosing period also received placebo in their second and third dosing periods. Similarly, drug-treated subjects received drug all three dosing periods. In the first Cohort, on the first dose only, 2 subjects were dosed on Day 1 with one subject receiving active drug and one subject receiving placebo. Following a review of available safety and tolerability data (excluding PK), the remainder of Cohort 1 was dosed the following day. Subjects were dosed as detailed in Table 11 with a minimum of 1-week washout between doses.
Subjects could be screened up to 28 days before the treatment period. On the evening before dosing, subjects were admitted to the clinical site and baseline evaluations were conducted. After an overnight fast, subjects received an intravenous infusion of Compound (XXXVI) or placebo then PD, PK, and safety evaluations were conducted during the next 24 hours. Cohort 1 was enrolled to the lowest dose group and randomized to Compound (XXXVI) or placebo. Safety and tolerability evaluations for each dose included all safety assessments obtained through approximately 24 hours post-dose.
Pharmacodynamic endpoints were assessed by two independent systems consisting of Dräger Infinity patient monitoring system and a portable NOX-T3 respiratory monitoring system. The Dräger system is an inpatient intensive care/postoperative monitoring system used to monitor minute ventilation, respiratory rate (RR), tidal volume (VT) via a pneumotachometer (Capnostat sensor), transcutaneous oxygen hemoglobin saturation (SpO2), and end tidal carbon dioxide (ETCO2) (Capnostat sensor). NOX/T3 is a portable monitoring device used for home diagnostic sleep apnea assessments. In this study, NOX device monitored RR, VT via respiratory inductance plethysmography (RIP), SpO2 (Nonin), actigraphy, nasal air flow, and audio recording of the dosing session. In addition to monitoring pharmacodynamic effects, the Dräger system was also used to monitor subject real-time safety. Standard safety assessments were measured repeatedly throughout the dosing session, and consisted of vital signs (BP, HR, RR, temperature (oral)), Ramsay Sedation Scale (RSS), and pulmonary function testing.
Test Product, Dose, Mode of Administration, Batch and Lot No(s): Compound (XXXVI) was prepared as a sterile product for injection ready for dilution in normal saline and administration by infusion. Doses were based on the subject's weight on a milligram per kilogram basis and were administered over a 1-, 2-, 3- or 4-hour infusion as described in Table 11. Compound (XXXVI) (Batch No. 04110511) was provided by the Sponsor as a 50 mL fill of 10 mg/mL solution (GAL-021 freebase) in 20 mM citrate for IV Injection; Saline was sourced by the Investigator from Baxter, Lot 11F03E7L.
Thirty (30) subjects received single IV infusions over 1, 2, 3, or 4 hours on the first day of each of 3 periods for a total of 3 dosing days per subject. Per protocol, there was to be a minimum one week washout between doses of Compound (XXXVI) for all subjects. Actual washout periods ranged from 9 to 20 days overall.
Pharmacodynamic (PD) evaluations included tidal volume, respiratory rate, minute ventilation, end-tidal CO2, and transcutaneous hemoglobin oxygen saturation (SpO2). […]

[1] = IV infusion 0.102 to 2.16 mg/kg, 1 to 4 hours

CCCNc1nc(NCCC)nc(N(C)OC)n1.O=S(=O)(O)O [XXXVI, N-(4,6-Bis-n-propylamino-[1,3,5]triazin-2-yl)-N,O-dimethyl-hydroxylamine hydrogen sulfate]
increase in tidal volume (0.016 mg/kg dose (so in the source)): < 10%
minute ventilation (0.016 mg/kg/min x 1 hour): stimulated minute ventilation
safety and tolerability (0.102-2.16 mg/kg IV, durations 1 to 4 hours): generally safe and well tolerated
dose proportionality of concentration at 1 hour and AUC [1]: dose proportional
pharmacokinetic behaviour [1]: well-behaved pharmacokinetically
change in respiratory rate (all doses): < 10%
increase in minute ventilation (highest infusion rate (0.016 mg/kg/min x 1 hour), first 2 hours after start of infusion): ~27%
